{
  "source": "ChEMBL document CHEMBL1151167",
  "about": "“New marine sesquiterpenoids and diterpenoids from the Okinawan soft coral Clavularia koellikeri” (2004)",
  "assay_type_in_all_cases": "functional",
  "key": {"[1]": {"test_system": "MKN-74", "experiment": "Cytotoxicity against human MKN74 cells after 48 hrs by SRB assay", "conditions": "MKN-74, 48 h"}, "[2]": {"test_system": "NCI-H522", "experiment": "Cytotoxicity against human NCI-H522 cells after 48 hrs by SRB assay", "conditions": "NCI-H522, 48 h"}, "[3]": {"test_system": "SF-539", "experiment": "Cytotoxicity against human SF539 cells after 48 hrs by SRB assay", "conditions": "SF-539, 48 h"}, "[4]": {"test_system": "SNB-75", "experiment": "Cytotoxicity against human SNB75 cells after 48 hrs by SRB assay", "conditions": "SNB-75, 48 h"}, "[5]": {"test_system": "LOX IMVI", "experiment": "Cytotoxicity against human LOXIMVI cells after 48 hrs by SRB assay"}},
  "data": [
    {"molecule": "C/C1=C\\CC2=CC[C@@H](C(C)C)[C@]2(C)C[C@@H](O)/C(C)=C/CC1", "values": [
      {"measurement": "GI50", "setting": "[1]", "result": 5.2, "unit": "µg/mL"},
      {"measurement": "GI50", "setting": "[2]", "result": 5.2, "unit": "µg/mL"},
      {"measurement": "GI50", "setting": "[3]", "result": 4.9, "unit": "µg/mL"},
      {"measurement": "GI50", "setting": "[4]", "result": 4.9, "unit": "µg/mL"},
      {"measurement": "GI50", "setting": "[5]", "result": 4.9, "unit": "µg/mL"}
    ]}
  ]
}
